Data set [1] concerns Microsporum canis (IFM63627). Description: Antifungal activity test, minimum inhibitory concentration (MIC100). It is filed as cell-based. As to conditions: Sabouraud medium, 32° C. for 72 hours. The protocol:
Microsporum canis was cultured on a 1/10 Sabouraud medium at 32° C. for 168 hours to form spores. Then, 10 mL of physiological saline solution (OTSUKA NORMAL SALINE; containing the equivalent of 9 g of sodium chloride in 1000 mL) was directly added over the medium, and the surface was scraped with a disposable loop (Type 1 (1 μL) to collect a spore suspension containing mycelia. The spore suspension containing mycelia was filtered through a cell strainer (+40 μm). Spores were collected from a filtrate by centrifugation (3500 rpm, 5 minutes), and washed twice with physiological saline to prepare a spore suspension (1×10^7 cells/mL). 10 μL of the spore suspension was inoculated into a Sabouraud medium to which the compound under test dissolved in DMSO was added so as to have a predetermined concentration. Microsporum canis was cultured at 32° C. for 72 hours, and then the presence or absence of the development of colonies was examined to determine a minimum inhibitory concentration (MIC100).
A minimum inhibitory concentration (MIC100) for Microsporum canis (IFM63627) was determined in the same method as in Test Example 7 except that the hydrate crystal (Production Example 2) was used as the compound under test.

Data set [2] is described as follows: Test of triboelectrification properties. As to conditions: 25° C. and 50% RH. It is filed as physicochemical. The protocol:
First, the sample was loaded into a levelled stainless steel petri dish having φ50 mm×a height of 15 mm, and then it was statically eliminated with a static eliminator (STABLO AP, manufactured by SHIMADZU CORPORATION). The surface potential of the sample was measured with a surface electrometer (SV-77A, manufactured by NIPPON STATIC CO., LTD.) that had previously been zero-point adjusted, to confirm that it was statically eliminated (within −1 to +1 kV). Next, the sample surface of the petri dish loaded with the sample was scraped back and forth 20 times with a stainless steel metal plate for 10 seconds to charge the sample surface. After that, the petri dish loaded with the charged sample was placed on a metal plate (30 cm×30 cm) connected with a ground wire. The surface potential of the sample was measured over time for 20 minutes with the above surface electrometer. The triboelectrification properties were evaluated from the initial surface potential. In addition, the retention rate was calculated from the surface potential after 20 minutes and the initial surface potential to evaluate charge attenuation properties. Note that the test was conducted in an electrostatic measurement chamber (Tabai ESPEC CORP.) set to 25° C. and 50% RH, and the surface potential measurement was conducted at a distance of 1 cm from the sample surface.

In data set [3] the test system is Trichophyton rubrum (ATCCMYA4607). Description: Antifungal activity test, minimum fungicidal concentration (MFC100) on spores by treatment time. Particulars: read-out: Minimal fungicidal concentration (MFC100). It counts as cell-based. On the procedure: Trichophyton rubrum was cultured on a Sabouraud medium at 32° C. for 168 hours to form spores. Mycelia were peeled from a medium surface and collected into a tube, physiological saline solution (OTSUKA NORMAL SALINE; containing the equivalent of 9 g of sodium chloride in 1000 mL) was added thereto, and the entire mixture was mixed and dispersed with a disposable loop (Type 1 (1 μL)) to collect a spore suspension containing mycelia. The spore suspension containing mycelia was filtered through a cell strainer (+40 μm). Spores were collected from a filtrate by centrifugation (3500 rpm, 5 minutes), and washed twice with physiological saline to prepare a spore suspension (1×10^7 cells/mL). 10 μL of the spore suspension was inoculated into 90 μL of physiological saline solution to which the test compound dissolved in DMSO was added so as to have a predetermined concentration. Every time a predetermined time lapsed, 10 μL of a test solution containing spores was taken out. Spores were collected from the test solution thus taken out by centrifugation (3500 rpm, 5 minutes), and washed twice with physiological saline to prepare 10 μL of spore suspension. 10 μL of spore suspension was spotted on the Sabouraud medium and cultured at 32° C. for 72 hours, and then the presence or absence of the development of colonies was examined to determine a minimum fungicidal concentration (MFC100).
A minimum inhibitory concentration (MIC100) for Trichophyton rubrum (ATCCMYA4607) was determined in the same method as in Test Example 13 except that the hydrate crystal (Production Example 2) was used as the compound under test.

Data set [4] can be described thus: Karl Fischer moisture content measurement (volumetric titration method). It counts as physicochemical. As to conditions: atmosphere of 25° C., as obtained. The protocol:
The moisture content rates of the hydrate crystals obtained in Production Examples 1 and 2, and the anhydrous crystals used as a raw material in Production Example 1 were measured with a Karl Fischer moisture meter (CA-310, manufactured by Nittoseiko Analytech Co., Ltd.). The test was conducted in conformance with the description in The Japanese Pharmacopoeia, 18th Edition, “2.48 Water Determination (Karl Fischer Method)”, Volumetric titration. The measurement was performed in an atmosphere of 25° C., with the conditions set to a forced delay time of 2 minutes after sample administration, a minimum amount to be titrated of 2 μL, and an end point voltage of 140 mV. More specifically, it was as follows. First, into a measuring flask, methanol for moisture measurement (Aquamicron Dehydrated Solvent GEX, manufactured by Mitsubishi Chemical Corporation) was loaded, and 30 mg of water was added thereto to titrate the mixture with a Karl Fischer reagent (Aquamicron SS-Z, manufactured by Mitsubishi Chemical Corporation). After titration, a titer (mg/mL) of the reagent was determined from the amount titrated. Next, about 0.1 g of a measurement sample was precisely weighed and added into the measuring flask to titrate the mixture with a Karl Fischer reagent. The moisture content (w/w %) in the sample was calculated from the amount titrated and the previously determined titer.

The text below walks through data of patent publication US20250026725A1, “HYDRATE CRYSTAL OF 5-CHLORO-4-(3-CHLORO-4- METHYLPHENYL)-1H-IMIDAZOLE-2-CARBONITRILE” (ISHIHARA SANGYO KAISHA, LTD., priority 2021, published 2025).

≈ marks a conversion by molar mass, not a printed value. Read-outs that look alike come from different tables or passages of the source.

Broadly, the MIC is the smallest concentration in the dilution series that meets the test's criterion for growth inhibition. Read a high MIC as weaker potency.

In turn, `Cc1ccc(-c2nc(C#N)[nH]c2Cl)cc1Cl` [Anhydrous crystal, 5-chloro-4-(3-chloro-4-methylphenyl)-1H-imidazole-2-carbonitrile] returned an MIC in data set [1] of 5 µg/mL (≈ 19.8 µM). For the same compound, the Electrification voltage in data set [2] (0 minutes after charging, listed as Anhydrate crystal) is recorded as −5.42 kv; in data set [2] (20 minutes after charging, listed as Anhydrate crystal), −5.39 kv. In addition, the “Decrease of potential retention rate” value in data set [2] (at 20 minutes later) is listed as “almost no change”. In addition, the Retention rate in data set [2] (surface potential after 20 minutes vs initial, listed as Anhydrate crystal) turned out to be 99.4%. For the same compound, the MFC was 50 µg/mL (≈ 198 µM) in data set [3] (treatment time 1 hour), 10 µg/mL (≈ 39.7 µM) in data set [3] (treatment time 48 hours) and 5 µg/mL (≈ 19.8 µM) in data set [3] (treatment time 72 hours). Further, the “Karl Fischer moisture content” value in data set [4] was 0.1 wt %.
